From patent EP0264914A2, “Process for producing L-phenylalanine” (KYOWA HAKKO KOGYO CO., LTD., priority 1986, dated 1988) come the findings set out here.

One assay addresses CM (Escherichia coli, UniProt P0A9J8). In words: CM activity with phenylalanine added to the reaction solution. It is filed as biochemical. The settings on record: 100 mM phenylalanine; for activity at 100000 µM: read-out: CM activity, expressed as percentage of that without addition of phenylalanine. The procedure: (§1) DS, CM and PD activities of Corynebacterium glutamicum ATCC 39019 and transformants containing pEaroG-pheA3 were determined. Determination of DS activity was done according to the method of P.R. Sprinavasan, D.B. Sprinson, et al. [J. Biol. Chem., 234, 716 (1959)] and determination of CM and PD activities was done according to the method of R.G.H. Cotton and F. Gibson [Biochem. Biophys. Acta, 100, 76 (1965)].
(§2) Furthermore, DS, CM and PD activities of the transformants carrying pEaroG-pheA1, pEaroG-pheA2 or pEaroG-pheA3, were determined when 100 mM phenylalanine was added to the reaction solutions. Their activities shown in Table 2 are expressed as percentages of those without addition of phenylalanine.

For a further assay, the target named is DS (Escherichia coli, UniProt P0AB91). In words: DS activity with phenylalanine added to the reaction solution. The class given is biochemical. The settings on record: 100 mM phenylalanine. The procedure: as §1, §2
Chain of DS (P0AB91 whole entry): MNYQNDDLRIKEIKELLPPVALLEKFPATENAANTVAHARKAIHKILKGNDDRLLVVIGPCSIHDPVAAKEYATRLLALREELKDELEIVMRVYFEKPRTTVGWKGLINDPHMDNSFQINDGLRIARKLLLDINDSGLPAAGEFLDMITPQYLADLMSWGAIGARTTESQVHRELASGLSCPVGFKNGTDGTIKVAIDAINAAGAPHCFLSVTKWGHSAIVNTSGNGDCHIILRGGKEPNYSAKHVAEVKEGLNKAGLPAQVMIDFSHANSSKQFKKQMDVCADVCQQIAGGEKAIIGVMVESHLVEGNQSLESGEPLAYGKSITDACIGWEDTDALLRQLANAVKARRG
The target in the next assay is PD (Escherichia coli, UniProt P0A9J8). In words: PD activity with phenylalanine added to the reaction solution. The class given is biochemical. The settings on record: 100 mM phenylalanine; for activity at 100000 µM: read-out: PD activity, expressed as percentage of that without addition of phenylalanine. The procedure:
as §1, §2

Assay [1] concerns Escherichia coli AB3248 strain carrying pAROG1. Briefly: Growth on M9 plate medium containing phenylalanine. It is filed as cell-based. To be noted: M9 plate medium containing 500 µg/mℓ phenylalanine. The procedure:
Then, 50 µℓ of the ligase reaction mixture was added to 0.2 mℓ of a suspension containing competent cells at a concentration of about 10⁹ cells/mℓ and the mixture was left standing on ice for 10 minutes. Then, the mixture was heated at 37°C for 5 minutes and admixed with 2 mℓ of LB medium. Then, the mixture was left standing at 37°C for 90-120 minutes. Then, the cells were centrifugally washed twice with physiological saline solution and spread onto M9 plate medium (medium comprising 2 g of glucose, 1 g of NH₄Cl, 6 g of Na₂HPO₄, 3 g of KH₂PO₄, 0.1 g of MgSO₄·7H₂O, 15 mg of CaCl₂·2H₂O, 4 mg of thiamine hydrochloride and 15 g of agar in 1 ℓ of water, adjusted to pH 7.2), containing […] each of histidine, proline, arginine, isoleucine and valine. Colonies grown on M9 plate medium were spread onto LB plate medium (LB medium containing 1.6% agar, pH 7.0) containing 100 µg/mℓ ampicillin and LB plate medium containing 20 µg/mℓ tetracycline, and transformants grown on the ampicillin-containing medium and failing to grow on the tetracycline-containing medium were selected.
Furthermore, the HindIII-SalI-cleaved DNA fragment had the same restriction enzyme cleavage sites as those of aroG gene, as reported by W.D. Davies, et al. [Nucl. Acids Res., 10, 4045 (1982)] […]

The mark [2] stands for this setting: Corynebacterium glutamicum ATCC 39019/pEaroG-pheA1.
[3] abbreviates: Corynebacterium glutamicum ATCC 39019/pEaroG-pheA2.
Where [4] appears, read: Corynebacterium glutamicum ATCC 39019/pEaroG-pheA3.

Where two headings read alike, the source gives them in different places.

Chain of PD (P0A9J8 whole entry): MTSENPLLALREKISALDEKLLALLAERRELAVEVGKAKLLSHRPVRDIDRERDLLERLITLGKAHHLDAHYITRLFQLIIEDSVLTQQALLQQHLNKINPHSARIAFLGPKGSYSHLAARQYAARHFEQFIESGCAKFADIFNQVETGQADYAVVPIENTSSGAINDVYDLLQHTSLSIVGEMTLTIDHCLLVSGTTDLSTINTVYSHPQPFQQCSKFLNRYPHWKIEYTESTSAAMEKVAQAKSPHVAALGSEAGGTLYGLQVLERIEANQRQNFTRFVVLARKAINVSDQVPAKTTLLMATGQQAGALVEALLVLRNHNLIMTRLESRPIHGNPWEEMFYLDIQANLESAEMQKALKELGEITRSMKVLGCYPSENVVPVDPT
Chain of CM (P0A9J8 whole entry): as above

`N[C@@H](Cc1ccccc1)C(=O)O` [phenylalanine]: the activity at 100000 µM at CM (setting [2]) was found to be 61%; at CM (setting [3]), 66%; on DS (Corynebacterium glutamicum ATCC 39019/pEaroG-pheA1, read-out: DS activity, expressed as percentage of that without addition of phenylalanine), 12%; on PD (setting [2]), 5%; at PD (setting [3]), 7%. In addition, at CM (setting [4]), the “CM activity, expressed as percentage of that without addition of phenylalanine” value was determined as 89 percentages. Further, the “DS activity, expressed as percentage of that without addition of phenylalanine” value at DS (setting [3]) and at DS (setting [4]) was 74 percentages in each case. Moreover, the “PD activity, expressed as percentage of that without addition of phenylalanine” value at PD (setting [4]) is reported as 81 percentages. The “growth of Escherichia coli AB3248 strain carrying pAROG1” value in assay [1] is recorded as “completely inhibited”.
